The test system of data set [1] is C57BL/6cnc mice. Kind of data set: Synergistic effect of Example 7 with other NASH compounds in mouse model. The format is in vivo. Conditions: NASH mice, single agents, 2-week treatment. The text has this:
There are other candidates being developped for inflammation, metabolism syndromes or NASH These include glucagon-like peptide-1 (GLP-1) receptor agonist liraglutide, peroxisome proliferator-activated receptor-α and -β (PPAR-α/δ) agonist elafibranor, and nuclear erythroid 2-related factor 2 (NRF2) activator bardoxolone methyl (CDDO-Me). These candidates target different proteins and pathways, therefore have different mechanisms of action related to steatosis, inflammation, and fibrosis.
C57BL/6cnc mice were fed with high-fat diet containing 60 kacl % fat and 0.10% methionine (no added choline) (Research Diets, A06071302) for 12 weeks to induce NASH model. After 12-week diet induction, the mice had increased plasma levels of TC, LDL-c, ALT, and fibrosis markers. […] An Example 7 alone group and a vehicle group were also set up for controls. […] After 2-week treatment, serum biochemistry was measured; liver was collected to measure liver TC and TG. Livers were punched in 2 mm diameter and fixed, sectioned and stained with Sirius Red, and the fibrosis and steatosis were scored.

In a further data set the target is T1, CYP 2D6 (Homo sapiens, UniProt P10635).
T1 construct: from tissue; host or cells: human liver microsomes
T1 sequence (P10635 whole entry): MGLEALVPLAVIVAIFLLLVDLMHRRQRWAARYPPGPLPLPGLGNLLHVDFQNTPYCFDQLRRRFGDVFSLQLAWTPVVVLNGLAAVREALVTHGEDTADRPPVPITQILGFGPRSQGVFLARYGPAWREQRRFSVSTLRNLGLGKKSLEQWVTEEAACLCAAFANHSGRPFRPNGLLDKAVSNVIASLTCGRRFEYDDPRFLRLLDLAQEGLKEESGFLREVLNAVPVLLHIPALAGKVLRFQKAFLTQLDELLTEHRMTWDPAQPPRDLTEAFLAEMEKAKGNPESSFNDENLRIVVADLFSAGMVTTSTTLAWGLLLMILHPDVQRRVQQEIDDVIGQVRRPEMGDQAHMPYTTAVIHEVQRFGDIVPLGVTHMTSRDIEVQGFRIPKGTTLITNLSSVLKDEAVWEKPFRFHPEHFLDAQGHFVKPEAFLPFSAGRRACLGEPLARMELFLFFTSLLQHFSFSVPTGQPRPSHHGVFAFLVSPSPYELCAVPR
Kind of data set: CYP inhibition in human liver microsome, 2D6. The data set is classed as in vitro ADME. The settings on record: human liver microsomes, substrate dextromethorphan, top 50 μM; read-out: CYP450 inhibition IC50 2D6. The protocol:
(§1) Test compounds were evaluated for CYP inhibition using human liver microsomes (HLM). Test compounds were 1:3 serially diluted starting at 50 μM to generate 7 different concentrations. After incubation of diluted test compounds with HLM, a substrate cocktail composed of phenacetin (10 uM), amodiaquine (2 uM), diclofenac (5 uM), s-mephenytoin (30 uM), dextromethorphan (5 uM), and midazolam (2 uM) was added to check the remaining CYP activity for CYP 1A2, 2C8, 2C9, 2C19, 2D6 and 3A4. The CYP activity was measured by detecting the peak area of individual metabolites of know CYP substrates using LC/MS/MS. A percentage of inhibition of CYP was calculated at each final concentration of test compound, through which an IC50 was fitted to represent the inhibition potential.
(Liver microsomes are a subcellular fraction often used to study metabolism.)

For data set [2], the system named is C57BL/6cnc mice. Put plainly: Cholesterol-lowering efficacy in high cholesterol diet-induced hypercholesterolemia mouse model. The format is in vivo. Here is the method:
To further confirm the PD effects of compounds, another diet induced NAFLD mouse model was used. C57BL/6cnc mice were fed with the diet containing 1.5% cholesterol and 0.5% cholic acid (Research Diets, D12109C) for 2 weeks prior to the initiation of treatment. The cholesterol lowering efficacy of compounds disclosed herein was tested in two separate studies. […] Thyroid hormone T3 (0.1 mg/kg, intraperitoneal injection) was evaluated as a positive control in the second study. The treatment lasted two weeks with daily oral gavage. Blood samples were taken at the end of study for plasma cholesterol and LDL-c detection. At the end of study, the liver tissues were taken for measurement of the hepatic cholesterol levels. DIO1 is a THRβ target gene in liver, and its mRNA level reflects the activity of THRO. Therefore, the expression of DIO1 was also quantitated in liver tissue by qPCR to examine the target engagement by these compounds. The compound concentration was quantified in blood, liver and heart.

The test system of data set [3] is C57BL/6cnc mice. Kind of data set: Cholesterol-lowering efficacy in trans-fat AMLN diet-induced hypercholesterolemia mouse model. The data set is classed as in vivo. Conditions: AMLN diet mice, daily oral gavage 2 weeks, 0.3-3 mg/kg (Example 7) or 1 and 3 mg/kg. The protocol:
C57BL/6cnc mice were fed with AMVLN diet containing 40 Kcal % Fat, 20 Kcal % Fructose and 2% Cholesterol (Research Diets, D09100301) for 5 weeks to induce hypercholesterolemia. The cholesterol lowering efficacy of compounds disclosed herein were tested in two separate studies. […] Thyroid hormone T3 (0.1 mg/kg, intraperitoneal injection) was evaluated as a positive control in both studies. The treatment lasted two weeks with daily oral gavage. Blood samples were taken before the dosing on the first day and again at the end of study for detection of plasma cholesterol (TC), triglycerides (TG) and LDL-c. […] At the end of study, the liver tissues were taken for measuring the hepatic TC and TG levels. The compound concentration was quantified in blood, liver and heart.

The next data set concerns the target T2, CYP 2C9 (Homo sapiens, UniProt P11712).
T2 construct: from tissue; host or cells: human liver microsomes
Kind of data set: CYP inhibition in human liver microsome, 2C9. The format is in vitro ADME. The settings on record: human liver microsomes, substrate diclofenac, top 50 μM; read-out: CYP450 inhibition IC50 2C9. Here is the method: as §1

Data set [4] concerns the target T3, THRβ-LBD (Homo sapiens, UniProt P10828).
T3 sequence (P10828 217-461 limits assumed): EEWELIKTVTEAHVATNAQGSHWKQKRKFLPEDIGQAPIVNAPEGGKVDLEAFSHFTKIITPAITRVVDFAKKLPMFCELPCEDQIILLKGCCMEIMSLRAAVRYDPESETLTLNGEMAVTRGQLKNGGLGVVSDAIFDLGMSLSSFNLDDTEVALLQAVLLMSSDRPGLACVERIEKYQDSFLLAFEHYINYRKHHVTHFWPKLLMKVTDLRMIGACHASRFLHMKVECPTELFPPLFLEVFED
Method: (§3) The coactivator recruitment assay was performed using LanthaScreen™ TR-FRET TR coactivator assay kit (ThermoFisher). […] THRβ-LBD (ligand binding domain) or THRα-LBD was added to test compounds at a final concentration of 2.5 nM followed by addition of a mixture of the fluorescein-coactivator peptide and terbium-conjugated anti-GST antibody. The diluted test compounds were mixed with the same volume of other reagents (10 μl:10 μl). After 2-hour incubation period at room temperature, the plate was read at wavelengths of 520 nm and 495 nm using Envison plate reader (PerkinElmer). […] In addition, the selectivity for each compound was normalized for the selectivity of T3 run in the same assay.

The target of data set [5] is T3, THRβ-LBD. Kind of data set: THR coactivator recruitment assay (LanthaScreen TR-FRET), THRβ. A general note: TR-FRET usually uses a lanthanide donor and a delayed reading to cut background.
Method: as §3
In the next data set the target is T4, CYP 2C8 (Homo sapiens, UniProt P10632).
T4 construct: from tissue; host or cells: human liver microsomes
T4 sequence (P10632 1-490): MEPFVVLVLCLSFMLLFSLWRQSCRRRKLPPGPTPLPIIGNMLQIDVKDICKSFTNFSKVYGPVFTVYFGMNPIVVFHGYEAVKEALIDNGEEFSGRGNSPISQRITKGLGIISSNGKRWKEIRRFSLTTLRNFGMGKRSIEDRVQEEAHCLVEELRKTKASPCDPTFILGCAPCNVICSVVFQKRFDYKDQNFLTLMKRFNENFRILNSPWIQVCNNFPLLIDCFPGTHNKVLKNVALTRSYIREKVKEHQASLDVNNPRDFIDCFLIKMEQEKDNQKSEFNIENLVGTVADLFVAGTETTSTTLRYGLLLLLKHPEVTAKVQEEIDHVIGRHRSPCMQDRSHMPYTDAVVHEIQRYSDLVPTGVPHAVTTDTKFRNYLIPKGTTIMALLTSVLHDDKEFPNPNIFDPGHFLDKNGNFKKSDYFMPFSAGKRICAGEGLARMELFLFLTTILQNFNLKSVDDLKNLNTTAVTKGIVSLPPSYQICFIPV
Kind of data set: CYP inhibition in human liver microsome, 2C8. The data set is classed as in vitro ADME. The settings on record: human liver microsomes, substrate amodiaquine, top 50 μM; read-out: CYP450 inhibition IC50 2C8. Here is the method: as §1

The next data set has as its target T5, CYP 2C19 (Homo sapiens, UniProt P33261).
T5 construct: from tissue; host or cells: human liver microsomes
Kind of data set: CYP inhibition in human liver microsome, 2C19. Conditions: human liver microsomes, substrate s-mephenytoin, top 50 μM; read-out: CYP450 inhibition IC50 2C19. The data set is classed as in vitro ADME. The protocol:
as §1

The next data set deals with T6, THRα-LBD (Homo sapiens, UniProt P10827).
T6 construct: purchased ThermoFisher
T6 sequence (P10827 163-410 isoform P10827-2 limits assumed, other chains not shown): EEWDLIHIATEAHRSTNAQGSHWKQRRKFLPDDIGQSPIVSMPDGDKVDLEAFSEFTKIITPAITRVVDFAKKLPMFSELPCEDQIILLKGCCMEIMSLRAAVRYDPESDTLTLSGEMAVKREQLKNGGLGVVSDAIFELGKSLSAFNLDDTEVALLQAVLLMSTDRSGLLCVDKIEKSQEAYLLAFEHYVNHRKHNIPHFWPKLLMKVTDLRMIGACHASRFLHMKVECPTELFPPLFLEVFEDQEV
Kind of data set: THR coactivator recruitment assay (LanthaScreen TR-FRET), THRα. The data set is classed as biochemical.

The target of a further data set is T7, CYP 3A4 (Homo sapiens, UniProt P08684).
T7 construct: from tissue; host or cells: human liver microsomes
T7 sequence (P08684 whole entry): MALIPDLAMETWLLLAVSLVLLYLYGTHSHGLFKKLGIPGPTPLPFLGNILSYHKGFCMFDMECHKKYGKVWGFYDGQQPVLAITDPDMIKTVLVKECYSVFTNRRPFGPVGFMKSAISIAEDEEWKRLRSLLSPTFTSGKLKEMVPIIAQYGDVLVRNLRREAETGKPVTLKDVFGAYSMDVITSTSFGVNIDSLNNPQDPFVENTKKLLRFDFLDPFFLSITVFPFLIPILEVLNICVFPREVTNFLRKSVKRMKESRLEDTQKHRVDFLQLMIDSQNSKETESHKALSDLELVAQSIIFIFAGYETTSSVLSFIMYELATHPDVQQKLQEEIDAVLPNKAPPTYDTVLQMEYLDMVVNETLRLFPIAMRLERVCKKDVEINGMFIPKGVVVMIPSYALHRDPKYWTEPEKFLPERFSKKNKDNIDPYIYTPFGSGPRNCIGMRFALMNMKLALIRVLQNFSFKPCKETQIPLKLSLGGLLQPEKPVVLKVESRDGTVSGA
Kind of data set: CYP inhibition in human liver microsome, 3A4. The format is in vitro ADME. Conditions: human liver microsomes, substrate midazolam, top 50 μM; read-out: CYP450 inhibition IC50 3A4. Here is the method: as §1

The target in the next data set is T8, CYP 1A2 (Homo sapiens, UniProt P05177).
T8 construct: from tissue; host or cells: human liver microsomes
T8 sequence (P05177 1-516): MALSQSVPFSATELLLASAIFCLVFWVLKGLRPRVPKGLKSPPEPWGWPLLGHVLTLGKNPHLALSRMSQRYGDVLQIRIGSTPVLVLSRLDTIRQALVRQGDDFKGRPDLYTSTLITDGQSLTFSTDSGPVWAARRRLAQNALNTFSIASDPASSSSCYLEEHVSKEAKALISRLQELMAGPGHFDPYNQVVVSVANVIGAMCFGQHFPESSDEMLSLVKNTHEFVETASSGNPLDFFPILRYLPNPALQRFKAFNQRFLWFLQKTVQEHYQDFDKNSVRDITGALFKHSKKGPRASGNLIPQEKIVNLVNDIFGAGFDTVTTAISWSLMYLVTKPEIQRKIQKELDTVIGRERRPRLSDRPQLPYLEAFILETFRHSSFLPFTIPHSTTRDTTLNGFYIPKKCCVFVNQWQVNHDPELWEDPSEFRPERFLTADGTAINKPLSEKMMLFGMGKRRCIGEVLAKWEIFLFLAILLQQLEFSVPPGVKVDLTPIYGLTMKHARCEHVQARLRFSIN
Kind of data set: CYP inhibition in human liver microsome, 1A2. The data set is classed as in vitro ADME. The settings on record: human liver microsomes, substrate phenacetin, top 50 μM; read-out: CYP450 inhibition IC50 1A2. The protocol: as §1

A further data set concerns Thyroidectomized rats. Kind of data set: Heart safety evaluation in hypothyroid rat: heart rate. The data set is classed as in vivo. The settings on record: 0.1 mg/kg intraperitoneal injection, first 30 minutes. Here is the method:
(§2) SD Rats underwent thyroidectomy and recovered for 10 days. T3 and T4 were tested to confirm the complete thyroidectomy. […] Note that the dose for these compounds was […] higher than their therapeutic dose (1 mg/kg by oral gavage) in mouse models. For comparison, thyroid hormone T3 was also tested at 0.1 mg/kg with intraperitoneal injection. […] After 6 hours, the heart tissues were collected to quantitate the expression of α-MHC, a thyroid hormone responsive and THRα-target gene in heart.

The test system of a further data set is α-MHC. Put plainly: Heart safety evaluation in hypothyroid rat: cardiac α-MHC expression. The format is in vivo. Conditions: intraperitoneal, 37.5 mg/kg (T3 0.1 mg/kg), heart tissue after 6 hours. Here is the method: as §2
Where [6] appears, read: high cholesterol diet mice, 0.3, 1, 3 mg/kg daily oral gavage, 2-week treatment.
The mark [7] stands for this setting: maximum activity relative to the maximum activity of 500 nM T3.

Each structure is given as a SMILES string. Bounds are passed on as bounds.

T5 sequence (P33261 whole entry): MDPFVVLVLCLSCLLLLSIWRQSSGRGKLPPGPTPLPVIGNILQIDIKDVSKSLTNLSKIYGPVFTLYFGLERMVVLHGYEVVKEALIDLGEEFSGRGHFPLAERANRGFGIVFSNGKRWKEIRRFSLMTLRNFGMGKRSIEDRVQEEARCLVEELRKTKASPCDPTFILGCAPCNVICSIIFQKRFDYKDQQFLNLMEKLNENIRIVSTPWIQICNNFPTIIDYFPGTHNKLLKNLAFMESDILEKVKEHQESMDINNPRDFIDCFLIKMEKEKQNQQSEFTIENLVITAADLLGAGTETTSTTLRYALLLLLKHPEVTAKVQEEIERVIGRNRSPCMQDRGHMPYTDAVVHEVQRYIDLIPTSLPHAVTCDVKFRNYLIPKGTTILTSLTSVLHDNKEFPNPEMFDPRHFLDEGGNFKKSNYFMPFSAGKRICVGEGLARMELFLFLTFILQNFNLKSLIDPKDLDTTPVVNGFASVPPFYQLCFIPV
T2 sequence (P11712 whole entry): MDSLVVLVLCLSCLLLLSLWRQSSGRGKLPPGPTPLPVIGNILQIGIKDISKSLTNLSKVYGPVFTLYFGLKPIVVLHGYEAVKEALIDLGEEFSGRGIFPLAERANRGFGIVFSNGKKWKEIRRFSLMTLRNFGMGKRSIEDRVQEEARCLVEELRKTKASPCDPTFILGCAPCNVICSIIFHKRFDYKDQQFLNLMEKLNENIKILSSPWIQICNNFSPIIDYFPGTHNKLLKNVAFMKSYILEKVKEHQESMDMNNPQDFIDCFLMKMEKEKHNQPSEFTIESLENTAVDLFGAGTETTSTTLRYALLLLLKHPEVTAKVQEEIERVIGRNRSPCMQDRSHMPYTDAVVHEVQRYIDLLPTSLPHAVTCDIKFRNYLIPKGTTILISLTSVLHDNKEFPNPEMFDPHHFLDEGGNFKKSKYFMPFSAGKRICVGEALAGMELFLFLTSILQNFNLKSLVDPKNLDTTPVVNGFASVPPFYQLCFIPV
Method for THRα-LBD: The coactivator recruitment assay was performed using LanthaScreen™ TR-FRET TR coactivator assay kit (ThermoFisher). […] The diluted test compounds were mixed with the same volume of other reagents (10 μl:10 μl). […] In addition, the selectivity for each compound was normalized for the selectivity of T3 run in the same assay.

On to `CSc1ccc(C(=O)/C=C/c2cc(C)c(OC(C)(C)C(=O)O)c(C)c2)cc1` [Elafibranor, reference compound], for which the “liver weight, liver TC, liver TG, plasma TC, LDL-c, ALT, fibrosis, steatosis” value with C57BL/6cnc mice [1] was “reduced all or some of these parameters”.
Usually IC50 stands for the concentration needed to halve the response being measured. In the case of `[2H]c1c(C)c(Oc2cc(C(C([2H])([2H])[2H])C([2H])([2H])[2H])c(=O)[nH]n2)c(Cl)c([2H])c1-n1nc(C#N)c(=O)[nH]c1=O` [Example 50, 2-(3-chloro-5-methyl-4-((6-oxo-5-(propan-2-yl-1,1,1,3,3,3-d6)-1,6-dihydropyridazin-3-yl)oxy)phenyl-2,6-d2)-3,5-dioxo-2,3,4,5-tetrahydro-1,2,4-triazine-6-carbonitrile], the IC50 is over 50 µM at CYP 2D6; 41.4 µM at CYP 2C9; 4.19 µM at CYP 2C8; over 50 µM on CYP 2C19; over 50 µM on CYP 3A4; over 50 µM at CYP 1A2. Further, the “compound concentration in heart” value with C57BL/6cnc mice [2] (at end of study, high cholesterol diet mice) is recorded as “not detectable”. Besides, the “blood and liver distribution” value in the data set with C57BL/6cnc mice [2] (compound concentration at end of study, high cholesterol diet mice) was “similar”. Further, in the data set with C57BL/6cnc mice [2] (high cholesterol diet mice), the “efficacy in reducing liver cholesterol compared with MGL-3196” value is listed as “as effective as MGL-3196”. For the same compound, the values for the LDL-c result with C57BL/6cnc mice [2] (setting [6]) and in the data set with C57BL/6cnc mice [3] were “reduced” and “significantly reduced”, respectively. Also, the “plasma TC” value in the data set with C57BL/6cnc mice [2] (setting [6]) was “reduced”; in the data set with C57BL/6cnc mice [3], “significantly reduced”. The “expression of DIO1 in liver” value with C57BL/6cnc mice [2] (qPCR, mRNA of THRβ target gene, high cholesterol diet mice) is listed as “dose-dependently upregulated”. Moreover, the “liver TC” value with C57BL/6cnc mice [3] is recorded as “significantly reduced”. Moreover, the selectivity ratio at THRβ-LBD [4] was 13.5. Also, the EC50 at THRβ-LBD [5] is 0.1 to 1 µM; on THRα-LBD (EC50 class from TR-FRET ratio 520:495 dose response, read-out: THRα binding), 1 to 10 µM. The “THRβ Bmax % (vs T3)” value at THRβ-LBD [5] (setting [7]) is listed as 51%. Moreover, the “THRα Bmax % (vs T3)” value at THRα-LBD (setting [7]) was 36%.
Take `N[C@@H](Cc1cc(I)c(Oc2ccc(O)c(I)c2)c(I)c1)C(=O)O` [Example T3, 3,5,3′-triiodo-L-thyronine, reference compound]: the heart rate increase in the data set on Thyroidectomized rats amounted to 30%. In the data set on α-MHC, the “expression of cardiac α-MHC” value was “responsive”.

(Values after patent US12358899B2, “Thyroid hormone receptor agonists and uses thereof” (XIZANG HAISCO PHARMACEUTICAL CO., LTD., priority 2018, dated 2025).)
